US7560241B2, “Methods and compositions for modulating mitochondrial aldehyde dehydrogenase-2” (The Board of Trustees of the Leland Stanford Junior …, priority 2003, dated 2009)
Values joined by “and” are separate entries in the source; they are usually repeats but may differ in a detail not shown here. Identical values can stand only once. “Also recorded” adds a separate entry of the source. Like-named read-outs stand apart in the source and are kept apart here.

Experiments:
rat hearts = assay: ischemia/reperfusion damage in ex vivo Langendorff rat hearts, infarct size by TTC staining; conditions: for ischemic damage by TTC staining of heart sections: ischemia/reperfusion
AldDH2 = assay: aldehyde dehydrogenase enzymatic activity in homogenates of ex vivo Langendorff rat hearts (NADH at 340 nm, acetaldehyde substrate); type: biochemical; conditions: for inhibition of AldDH2: during ischemia reperfusion; for rate of NADH accumulation (absorbance at 340 nm), FIG. 4: ethanol before ischemia vs I/R alone or normoxia, cyanamide in ethanol treated ischemic or normoxic samples
Method: Ex vivo Langendorff preparation of rat hearts were used as a model to assess the damage incurred by no-flow ischemia and reperfusion injury. This is an experimental model that mimics the clinical situation of myocardial infarction in patients. Rat hearts were excised and cannulated on a Langendorff apparatus via the aorta. Retrograde perfusion was carried out using the standard oxygenated Kreb-Hensleit buffer maintained at 37° C. All hearts were stabilized by an initial 5- to 10-minute perfusion period followed by delivery of different cardioprotective agents or AldDH2 inhibitors for 10-30 minutes, depending on the reagent. […] Ischemia was then introduced by 25 minutes of no-flow followed by 60 minutes of reperfusion. The degree of ischemia/reperfusion damage was measured by two independent commonly accepted parameters. […] In another assay, creatine phosphate kinase activity was measured from reperfusate of each heart collected during reperfusion. […] Homogenates from each heart was also obtained from a separate section of the identical sample and analyzed for aldehyde dehydrogenase enzymatic activity. Enzymatic activity was determined by a standard spectrophotometric method described above using acetaldehyde as the substrate and NAD^+ as a cofactor. FIG. 2: An experimental protocol using an ex vivo Langendorff heart. Rat hearts were excised and cannulated on a Langendorff apparatus via aorta. Retrograde perfusion was carried out using the standard oxygenated Kreb-Hensleit buffer maintained at 37° C. […] Peptides used were a selective activator (εV1-7) or inhibitor (εV1-2) or epsilon protein kinase C (εPKC). Ischemia was then introduced by 25 minutes of no-flow followed by 60 minutes of reperfusion. […] FIG. 3: Formation of acetic acid from acetaldehyde by action of aldehyde dehydrogenase. Enzymatic activity of aldehyde dehydrogenase is determined by a standard photospectrometric method using acetaldehyde as a substrate. In this reaction, aldehyde dehydrogenase catalyzes the oxidation of acetaldehyde to acetic acid. Concomitantly, NAD^+ is reduced to NADH resulting in an increase in absorbance at 340 nm wavelength in a photospectrometer. The rate of NADH increase is proportional to the enzymatic activity of aldehyde dehydrogenase.

| Compound | increase in infarct damage (rat hearts) | increase in ischemia/reperfusion damage as measured by infarct size (rat hearts) [%] | effect on induction of AldDH2 activity by ethanol or εPKC agonist peptide (AldDH2; co-treatment, ischemia/reperfusion) | inhibition of AldDH2 (AldDH2; cyanamide treatment in the absence of ethanol or peptide) [%] | inhibition of AldDH2 (AldDH2; cyanamide treatment in the presence of ethanol) [%] | inhibition of AldDH2 (AldDH2; cyanamide treatment in the presence of peptide) [%] | rate of NADH accumulation (absorbance at 340 nm), FIG. 4 (AldDH2) | AldDH2 activity in normoxic heart samples (AldDH2; normoxic) | increase in ischemia/reperfusion damage as measured by infarct size (rat hearts; agent alone, compared to no treatment control) [%] | increase in infarct damage (rat hearts; in samples treated with ethanol) [%] | increase in infarct damage (rat hearts; in samples treated with εPKC agonist peptide) [%] | ischemic damage by TTC staining of heart sections (rat hearts; compared to control heart) | cardiac damage under normoxic condition (rat hearts; normoxic, compared to control heart) | increase in AldHD2 activity (AldDH2; as compared to ischemia/reperfusion control, ethanol 50 mM for 10 minutes, peptide 1 μM) [%] |
| --- | --- | --- | --- | --- | --- | --- | --- | --- | --- | --- | --- | --- | --- | --- |
| O=[N+]([O-])OCC(CO[N+](=O)[O-])O[N+](=O)[O-] [Nitroglycerin, nitroglycerin] | 36% and 31% | 29 |  |  |  |  |  |  |  |  |  |  |  |  |
| N#CN [cyanamide] |  |  | effect of induction is also greatly abolished | 63 | 64 | 74 | reduction of NADH accumulation | inhibition of AldDH2 activity | 49 | 62 | 56 | eliminates the protective effect of ethanol and leads to an even greater damage as compared to control | does not produce any significantly greater damage than the control heart; also recorded: did not lead to any greater cardiac damage |  |
| CCO [ethanol] |  |  |  |  |  |  | increase in the rate of absorbance |  |  |  |  | leads to cardioprotection |  | 25 |
